Test results taken from US8324014B2, “Process for depositing boron compounds by CVD or PVD” (L'Air Liquide Societe Anonyme pour l'Etude et …, priority 2007, dated 2012).
Where two headings read alike, the source gives them in different places.

What was measured:
rat = settings: cited from earlier work
[1] = thermogravimetric analysis; type: physicochemical; settings: ramp 20 to 400° C., 10° C./min, 30 mL/min helium
Experimental: A thermogravimetric analysis of 1,3,5-trimethylborazine was carried out over a temperature ramp of 20 to 400° C., with a rise of 10° C./min under 30 mL/min of helium.
Curve 2 from FIG. 2A plotted as a lighter line represents the loss in mass of the sample as a function of the temperature. The final value of the residue level of 3.2% indicates a high purity and good thermal stability of 1,3,5-trimethylborazine. This residue level is reached at 165° C.
Thermogravimetric analysis of tri-butylborane was carried out over a temperature ramp of 20 to 400° C., with a rise of 10° C./min under 30 mL/min of helium.
Curve 2 from FIG. 4 plotted as a lighter line represents the loss in mass of the sample as a function of the temperature.

[2] = vapour pressure measurement (Clausius-Clapeyron diagram); type: physicochemical
Experimental: The curve plotted in FIG. 2B represents the Clausius-Clapeyron diagram of the 1,3,5-trimethylborazine molecule, namely its vapour pressure measurement. 1,3,5-trimethylborazine has a vapour pressure of 40 Torr at 50° C. and greater than 200 Torr at 100° C., indicating a good volatility.

Structure (SMILES)	toxicity qualification with reference to LD50 oral, rat (rat; oral)	final value of the residue level (thermal stability) [1] [%]	vapour pressure ([2]; at 50° C.) [Torr]	vapour pressure ([2]; at 100° C.)	toxicity qualification with reference to LD50 oral, rat (rat; in vivo, po)
CB(C)C [trimethylborane]	very toxic	–	–	–	–
CCCCB(CCCC)CCCC [tri-n-butylborane]	–	0.6	–	–	–
B.B [diborane]	lethal	–	–	–	–
CN1BN(C)BN(C)B1 [1,3,5-trimethylborazine]	–	3.2	40	greater than 200 Torr	slightly toxic to almost non-toxic
